{
  "source": "patent US20020137929A1",
  "about": "“1 - (3-heterocyclylphenyl) isothiourea, -isourea, -guanidine and -amidine herbicidal agents” (Intellectual Property Department, BASF Aktiengesellschaft, priority 1998, published 2002)",
  "key": {"SETVI (Foxtail, Green)": {"test_system": "SETVI (Foxtail, Green)", "assay": "Preemergence herbicidal evaluation", "type": "in vivo, Setaria viridis", "conditions": "preemergence, rated 4-5 weeks after treatment, 0-9 scale", "method_in_brief": "(§1)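 Each species is sown separately in potting soil over roughly an inch of soil before any emergence. The soil surface then receives an aqueous acetone spray delivering about 0.0156 to 0.500 kg/ha of compound. After four to five weeks, injury is scored from 0 to 9 relative to a control.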"}, "[1]": {"test_system": "SAGPY (Arrowhead (Pygmaea))", "assay": "Postemergence weed control under flooded paddy conditions", "type": "in vivo, Sagittaria pygmaea", "conditions": "postemergence weeds, rated 3 to 4 weeks after treatment", "method_in_brief": "(§2)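 Herbicidal effect is judged by eye on a 0–9 scale versus control, 3–4 weeks after dosing. Dosing is into flood water kept 1.5–3 cm over the soil, at about 0.0313–0.500 kg/ha in aqueous/acetone 50/50 v/v, on 3–5 cm weeds and 1.5–2.5-leaf rice seedlings.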"}, "[2]": {"test_system": "TRZAWR (Wheat, Winter, cv Riband)", "assay": "Postemergence herbicidal evaluation", "type": "in vivo, Triticum aestivum", "conditions": "postemergence", "method_in_brief": "(§3)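 Scores (0–9) reflect plant stand, vigor, malformation, size, chlorosis and general appearance relative to control, read 4 to 5 weeks after treatment and averaged where tests were repeated. Application: about 0.0156–0.500 kg/ha sprayed at 40 psi onto two-week seedlings.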"}, "[3]": {"test_system": "ECHORC (Watergrass (Calif.))", "assay": "Preemergence weed control under flooded paddy conditions", "type": "in vivo, Echinochloa oryzoides", "conditions": "rated 3-4 weeks after treatment", "method_in_brief": "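First, seeds or propagules go into the top 0.5 cm of silt loam; next, water is held 1.5 to 3 cm over the soil; then compound (50/50 acetone/water) is pipetted into it at about 0.0313 to 0.500 kg/ha; finally plants are rated visually 0-9 after three to four weeks.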"}, "[4]": {"test_system": "ECHORC (Watergrass (Calif.))", "assay": "Postemergence weed control under flooded paddy conditions", "type": "in vivo, Echinochloa oryzoides", "conditions": "postemergence weeds, rated 3 to 4 weeks after treatment", "method_in_brief": "as §2"}, "CYPSE (Flatsedge)": {"test_system": "CYPSE (Flatsedge)", "assay": "Preemergence weed control under flooded paddy conditions", "type": "in vivo, Cyperus serotinus", "conditions": "rated 3-4 weeks after treatment", "method_in_brief": "(§4)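 Silt loam, seeds in top 0.5 cm; flood held 1.5-3 cm; test cpd as acetone/water 50/50 into flood water, ~0.0313-0.500 kg/ha a.i.; greenhouse 3-4 wk; visual 0-9 score vs control.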"}, "MOOVA (Monochoria)": {"test_system": "MOOVA (Monochoria)", "assay": "Preemergence weed control under flooded paddy conditions", "type": "in vivo, Monochoria vaginalis", "conditions": "rated 3-4 weeks after treatment", "method_in_brief": "as §4"}, "AMBEL (Ragweed, Common)": {"test_system": "AMBEL (Ragweed, Common)", "assay": "Postemergence herbicidal evaluation", "type": "in vivo, Ambrosia artemisifolia", "conditions": "postemergence", "method_in_brief": "as §3"}, "CASOB (Sicklepod)": {"test_system": "CASOB (Sicklepod)", "assay": "Postemergence herbicidal evaluation", "type": "in vivo, Cassia obtusifolia", "conditions": "postemergence", "method_in_brief": "as §3"}, "[5]": {"test_system": "GLXMAW (Soybean, Williams)", "assay": "Postemergence herbicidal evaluation", "type": "in vivo, Glycine max, (L.) Merr. cv Williams", "conditions": "postemergence", "method_in_brief": "as §3"}, "GALAP (Galium) [6]": {"test_system": "GALAP (Galium)", "assay": "Postemergence herbicidal evaluation", "type": "in vivo, Galium aparine", "conditions": "postemergence", "method_in_brief": "as §3"}, "ORYSAT (Rice, Tebonnet)": {"test_system": "ORYSAT (Rice, Tebonnet)", "assay": "Preemergence herbicidal evaluation", "type": "in vivo, Oryza sativa, (L.) Tebonnet", "conditions": "preemergence, rated 4-5 weeks after treatment, 0-9 scale", "method_in_brief": "as §1"}, "GALAP (Galium) [7]": {"test_system": "GALAP (Galium)", "assay": "Preemergence herbicidal evaluation", "type": "in vivo, Galium aparine", "conditions": "preemergence, rated 4-5 weeks after treatment, 0-9 scale", "method_in_brief": "as §1"}, "[8]": {"test_system": "SAGPY (Arrowhead (Pygmaea))", "assay": "Preemergence weed control under flooded paddy conditions", "type": "in vivo, Sagittaria pygmaea", "conditions": "rated 3-4 weeks after treatment", "method_in_brief": "as §4"}},
  "data": [
    {"smiles": "CCOC(=O)CN1C(=O)C(CC(=O)NOC)SC1=Nc1cc(-n2c(=O)cc(C(F)(F)F)n(C)c2=O)c(F)cc1Cl", "note": "(stereo not shown) [Compound 83, Ethyl 2-{{2-chloro-5-[3,6-dihydro-3-methyl-2,6-dioxo-4-(trifluoromethyl)-1(2H)-pyrimidinyl]-4-fluorophenyl}imino}-5-[(methoxycarbamoyl)methyl]-4-oxo-3-thiazolidineacetate]", "values": [
      {"measurement": "SETVI rating", "setting": "SETVI (Foxtail, Green); 0.0156 kg/ha", "value": 0.0},
      {"measurement": "SETVI rating", "setting": "SETVI (Foxtail, Green); 0.0313 kg/ha", "value": 0.0},
      {"measurement": "SETVI rating", "setting": "SETVI (Foxtail, Green); 0.0625 kg/ha", "value": 0.0},
      {"measurement": "SETVI rating", "setting": "SETVI (Foxtail, Green); 0.1250 kg/ha", "value": 2.0},
      {"measurement": "SETVI rating", "setting": "SETVI (Foxtail, Green); 0.2500 kg/ha", "value": 9.0},
      {"measurement": "SETVI rating", "setting": "SETVI (Foxtail, Green); 0.5000 kg/ha", "value": 9.0},
      {"measurement": "Herbicidal rating SAGPY", "setting": "[1]; Rate 0.0313 kg/ha", "value": 7.0},
      {"measurement": "Herbicidal rating SAGPY", "setting": "[1]; Rate 0.0625 kg/ha", "value": 7.0},
      {"measurement": "Herbicidal rating SAGPY", "setting": "[1]; Rate 0.1250 kg/ha", "value": 7.0},
      {"measurement": "Herbicidal rating SAGPY", "setting": "[1]; Rate 0.2500 kg/ha", "value": 9.0},
      {"measurement": "TRZAWR herbicidal rating", "setting": "[2]; rate 0.0156 kg/ha", "value": 3.5},
      {"measurement": "TRZAWR herbicidal rating", "setting": "[2]; rate 0.0313 kg/ha", "value": 4.0},
      {"measurement": "TRZAWR herbicidal rating", "setting": "[2]; rate 0.0625 kg/ha", "value": 4.5},
      {"measurement": "TRZAWR herbicidal rating", "setting": "[2]; rate 0.1250 kg/ha", "value": 6.5},
      {"measurement": "ECHORC herbicidal effect rating", "setting": "[3]; 0.0313 kg/ha", "value": 5.0},
      {"measurement": "ECHORC herbicidal effect rating", "setting": "[3]; 0.0625 kg/ha", "value": 6.0},
      {"measurement": "ECHORC herbicidal effect rating", "setting": "[3]; 0.1250 kg/ha", "value": 7.0},
      {"measurement": "ECHORC herbicidal effect rating", "setting": "[3]; 0.2500 kg/ha", "value": 7.0},
      {"measurement": "Herbicidal rating ECHORC", "setting": "[4]; Rate 0.0313 kg/ha", "value": 5.0},
      {"measurement": "Herbicidal rating ECHORC", "setting": "[4]; Rate 0.0625 kg/ha", "value": 6.0},
      {"measurement": "Herbicidal rating ECHORC", "setting": "[4]; Rate 0.1250 kg/ha", "value": 7.0},
      {"measurement": "Herbicidal rating ECHORC", "setting": "[4]; Rate 0.2500 kg/ha", "value": 7.0},
      {"measurement": "CYPSE herbicidal effect rating", "setting": "CYPSE (Flatsedge); 0.0313 kg/ha", "value": 0.0},
      {"measurement": "CYPSE herbicidal effect rating", "setting": "CYPSE (Flatsedge); 0.1250 kg/ha", "value": 3.0},
      {"measurement": "CYPSE herbicidal effect rating", "setting": "CYPSE (Flatsedge); 0.2500 kg/ha", "value": 5.0},
      {"measurement": "MOOVA herbicidal effect rating", "setting": "MOOVA (Monochoria); 0.0313 kg/ha", "value": 9.0},
      {"measurement": "MOOVA herbicidal effect rating", "setting": "MOOVA (Monochoria); 0.0625 kg/ha", "value": 9.0},
      {"measurement": "MOOVA herbicidal effect rating", "setting": "MOOVA (Monochoria); 0.1250 kg/ha", "value": 9.0},
      {"measurement": "MOOVA herbicidal effect rating", "setting": "MOOVA (Monochoria); 0.2500 kg/ha", "value": 9.0},
      {"measurement": "AMBEL herbicidal rating", "setting": "AMBEL (Ragweed, Common); rate 0.0156 kg/ha", "value": 9.0},
      {"measurement": "AMBEL herbicidal rating", "setting": "AMBEL (Ragweed, Common); rate 0.0313 kg/ha", "value": 9.0},
      {"measurement": "AMBEL herbicidal rating", "setting": "AMBEL (Ragweed, Common); rate 0.0625 kg/ha", "value": 9.0},
      {"measurement": "AMBEL herbicidal rating", "setting": "AMBEL (Ragweed, Common); rate 0.1250 kg/ha", "value": 9.0},
      {"measurement": "CASOB herbicidal rating", "setting": "CASOB (Sicklepod); rate 0.0156 kg/ha", "value": 0.0},
      {"measurement": "CASOB herbicidal rating", "setting": "CASOB (Sicklepod); rate 0.0313 kg/ha", "value": 9.0},
      {"measurement": "CASOB herbicidal rating", "setting": "CASOB (Sicklepod); rate 0.0625 kg/ha", "value": 7.0},
      {"measurement": "CASOB herbicidal rating", "setting": "CASOB (Sicklepod); rate 0.1250 kg/ha", "value": 9.0},
      {"measurement": "GLXMAW herbicidal rating", "setting": "[5]; rate 0.0156 kg/ha", "value": 4.5},
      {"measurement": "GLXMAW herbicidal rating", "setting": "[5]; rate 0.0313 kg/ha", "value": 6.5},
      {"measurement": "GLXMAW herbicidal rating", "setting": "[5]; rate 0.0625 kg/ha", "value": 8.0},
      {"measurement": "GLXMAW herbicidal rating", "setting": "[5]; rate 0.1250 kg/ha", "value": 8.5},
      {"measurement": "GALAP herbicidal rating", "setting": "GALAP (Galium) [6]; rate 0.0156 kg/ha", "value": 0.0},
      {"measurement": "GALAP herbicidal rating", "setting": "GALAP (Galium) [6]; rate 0.0313 kg/ha", "value": 0.0},
      {"measurement": "GALAP herbicidal rating", "setting": "GALAP (Galium) [6]; rate 0.0625 kg/ha", "value": 3.0},
      {"measurement": "GALAP herbicidal rating", "setting": "GALAP (Galium) [6]; rate 0.1250 kg/ha", "value": 5.0},
      {"measurement": "ORYSAT rating", "setting": "ORYSAT (Rice, Tebonnet); 0.0156 kg/ha", "value": 0.0},
      {"measurement": "ORYSAT rating", "setting": "ORYSAT (Rice, Tebonnet); 0.0313 kg/ha", "value": 0.0},
      {"measurement": "ORYSAT rating", "setting": "ORYSAT (Rice, Tebonnet); 0.0625 kg/ha", "value": 0.0},
      {"measurement": "ORYSAT rating", "setting": "ORYSAT (Rice, Tebonnet); 0.1250 kg/ha", "value": 0.0},
      {"measurement": "ORYSAT rating", "setting": "ORYSAT (Rice, Tebonnet); 0.2500 kg/ha", "value": 0.0},
      {"measurement": "ORYSAT rating", "setting": "ORYSAT (Rice, Tebonnet); 0.5000 kg/ha", "value": 5.0},
      {"measurement": "GALAP rating", "setting": "GALAP (Galium) [7]; 0.0156 kg/ha", "value": 0.0},
      {"measurement": "GALAP rating", "setting": "GALAP (Galium) [7]; 0.0313 kg/ha", "value": 0.0},
      {"measurement": "GALAP rating", "setting": "GALAP (Galium) [7]; 0.0625 kg/ha", "value": 0.0},
      {"measurement": "GALAP rating", "setting": "GALAP (Galium) [7]; 0.1250 kg/ha", "value": 0.0},
      {"measurement": "GALAP rating", "setting": "GALAP (Galium) [7]; 0.2500 kg/ha", "value": 9.0},
      {"measurement": "GALAP rating", "setting": "GALAP (Galium) [7]; 0.5000 kg/ha", "value": 9.0},
      {"measurement": "SAGPY herbicidal effect rating", "setting": "[8]; 0.0313 kg/ha", "value": 7.0},
      {"measurement": "SAGPY herbicidal effect rating", "setting": "[8]; 0.0625 kg/ha", "value": 7.0},
      {"measurement": "SAGPY herbicidal effect rating", "setting": "[8]; 0.1250 kg/ha", "value": 7.0},
      {"measurement": "SAGPY herbicidal effect rating", "setting": "[8]; 0.2500 kg/ha", "value": 9.0}
    ]}
  ]
}
